The values below come from patent US20110218360A1, “PREPARATION OF RASAGILINE AND SALTS THEREOF” (DR. REDDY'S LABORATORIES LTD., priority 2008, published 2011).

The conditions of series [1]: particle size distribution after micronisation. From the text: (§1) The D10, D50, and D90 values are useful for indicating a particle size distribution. D90 refers to 90 volume percent of the particles having a size smaller than the specified value. Likewise D10 refers to 10 volume percent of the particles having a size smaller than the specified value. D50 refers to 50 volume percent of the particles having a size smaller than the specified value. Methods for determining D10, D50 and D90 include laser diffraction, such as using Malvern equipment (from Malvern Instruments Limited, Malvern, Worcestershire, United Kingdom).

For series [2] the following is noted: for change of particle size distribution / agglomerate formation on storage: ambient storage, up to 18 days, exposure to atmosphere; for D10 / D50 / D90: storage at 25±2° C., relative humidity 65±5%.
Excerpt: as §1
Rasgiline mesylate (6 g) prepared according to Example 28 is divided into three parts for storage under ambient conditions (temperature=25±2° C.; relative humidity=65±5%): unpackaged (P-I); in closed packages with a nitrogen atmosphere (P-II); and in closed packages with an air atmosphere (P-III). The samples are analyzed for particle size distribution on the 5th and 18th days.

Structures can show the parent of a compound that is named as a salt. Where two headings read alike, the source gives them in different places.

Consider `C#CCN[C@@H]1CCc2ccccc21` [Example 27, Rasagiline mesylate], for which, in series [1], the D10 is on record as 0.779 μm, the D50 is recorded as 2.285 μm and the D90 is 5.517 μm.
For the molecule `C#CCN[C@@H]1CCc2ccccc21` [rasagiline mesylate, (1R)—N-prop-2-ynyl-2,3-dihydro-1H-inden-1-amine methanesulfonate, reference compound], the “change of particle size distribution / agglomerate formation on storage” value in series [2] (methanesulfonate) was “susceptible to agglomerate formation”.
Consider `C#CCN[C@@H]1CCc2ccccc21` [Example 32, Rasagiline mesylate], for which, in series [1], the D10 is listed as 0.991 μm, the D50 was 3.093 μm, the D90 is recorded as 6.540 μm and the “D[4,3]” value was 3.496 μm.
As for `C#CCN[C@@H]1CCc2ccccc21` [Example 30, Rasagiline mesylate], in series [1], the D10 amounted to 0.761 μm, the D50 came to 2.346 μm, the D90 is 4.981 μm and the “D[4,3]” value amounted to 2.650 μm.
Taken in the same sequence, the figures for `C#CCN[C@@H]1CCc2ccccc21` [Example 28, Rasagiline mesylate] were 0.663 μm, 1.592 μm, 3.219 μm and 1.792 μm.
For `C#CCN[C@@H]1CCc2ccccc21` [P-III, Rasgiline mesylate], in series [2] (5th day), the D10 was found to be 1.182 μm, the D50 is given as 3.566 μm and the D90 was determined as 120.731 μm. In series [2] (18th day), this molecule showed a D10 of 1.365 μm, a D50 of 4.171 μm and a D90 of 144.617 μm.
For `C#CCN[C@@H]1CCc2ccccc21` [P-II, Rasgiline mesylate], in series [2], the “change of particle size distribution / agglomerate formation on storage” value is reported as “substantially unchanged”. In addition, in series [2] (5th day), the D10 stood at 0.892 μm, the D50 was found to be 2.859 μm and the D90 came out at 5.524 μm. In series [2] (18th day), this molecule had a D10 of 1.065 μm, a D50 of 3.227 μm and a D90 of 6.282 μm.
On to `C#CCN[C@@H]1CCc2ccccc21` [P-I, Rasgiline mesylate], for which, in series [2] (5th day), the D10 is 1.319 μm, the D50 was determined as 4.216 μm and the D90 is 151.379 μm.
In series [1], `C#CCN[C@@H]1CCc2ccccc21` [Example 31, Rasagiline mesylate] gave a D10 of 2.404 μm, a D50 of 146.957 μm and a D90 of 608.570 μm.
